Assays:
HIV-IIIb = assay: Test A: Antiviral assay in MT4 cells; format: cell-based, HIV-1; settings: MT-4 cells infected with HIV-IIIb, 5 days, CellTiter-Glo; for inhibition at 2 µM: Human immunodeficiency virus 1, IIIB, MT4, 120 h, read-out: % inhibition at 2 μM, percent inhibition of virus-induced cell killing, from dose response curve at 2 uM drug
in vitro = assay: in vitro
Method in brief: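 Cytoprotection read-out: CellTiter-Glo chemiluminescence after 5 days at 37 °C of HIV-IIIb-infected MT-4 cells (m.o.i. 0.003) with compound in 10-point 3-fold dilutions, quadruplicate, 10% FBS. Cytotoxicity (CC50) measured identically without virus.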

[1] = human, uninfected MT-4 cells, CC50 (nM), same protocol as Test A, CellTiter-Glo
[2] = human, CC50 (nM), uninfected MT-4 cells, same protocol as Test A, CellTiter-Glo

Compound	inhibition at 2 µM (HIV-IIIb) [%]	CC50 at 5 days (in vitro; [1]) [nM]	CC50 at 5 days (in vitro; [2]) [nM]	% inhibition at 2 μM (HIV-IIIb; percent inhibition of virus-induced cell killing, from dose response curve at 2 uM drug) [%]
NC(=O)c1cc(-c2cccnc2[C@H](Cc2cc(F)cc(F)c2)NC(=O)Cn2cnc3cc(Cl)c(Cl)cc32)ccc1F [Example 518, (S)-5-(2-(1-(2-(5,6-dichloro-1H-benzo[d]imidazol-1-yl)acetamido)-2-(3,5-difluorophenyl)ethyl)pyridin-3-yl)-2-fluorobenzamide]	11	10500	–	–
CC(C(=O)N[C@@H](Cc1cc(F)cc(F)c1)c1ncccc1-c1ccc(F)c(C(N)=O)c1)n1nc(C(F)(F)F)cc1C1CC1 (stereo partly drawn) [Example 519, 5-(2-((1S)-1-(2-(5-cyclopropyl-3-(trifluoromethyl)-1H-pyrazol-1-yl)propanamido)-2-(3,5-difluorophenyl)ethyl)pyridin-3-yl)-2-fluorobenzamide]	65	20300	–	–
CC(C)c1cc(C(=O)NC2CC2)n(CC(=O)N[C@@H](Cc2cc(F)cc(F)c2)c2ncccc2-c2ccc(F)c(C(N)=O)c2)n1 [Example 520, (S)-1-(2-(1-(3-(3-carbamoyl-4-fluorophenyl)pyridin-2-yl)-2-(3,5-difluorophenyl)ethylamino)-2-oxoethyl)-N-cyclopropyl-3-isopropyl-1H-pyrazole-5-carboxamide]	30	> 53200	–	–
CC(C)c1cc(C(=O)O)nn1CC(=O)N[C@@H](Cc1cc(F)cc(F)c1)c1ncccc1-c1ccc(F)c(C(N)=O)c1 [Example 521]	0	> 53200	–	–
Cc1cc2c(ccn2CC(=O)N[C@@H](Cc2cc(F)cc(F)c2)c2ncccc2-c2ccc(F)c(C(N)=O)c2)cn1 [Example 522, (S)-5-(2-(2-(3,5-difluorophenyl)-1-(2-(6-methyl-1H-pyrrolo[3,2-c]pyridin-1-yl)acetamido)ethyl)pyridin-3-yl)-2-fluorobenzamide]	4	47900	–	–
CNC(=O)c1nc2c(C)cccc2n1CC(=O)N[C@@H](Cc1cc(F)cc(F)c1)c1ncccc1-c1ccc(F)c(C(N)=O)c1 [Example 523, (S)-1-(2-(1-(3-(3-carbamoyl-4-fluorophenyl)pyridin-2-yl)-2-(3,5-difluorophenyl)ethylamino)-2-oxoethyl)-N,4-dimethyl-1H-benzo[d]imidazole-2-carboxamide]	24	48800	–	–
O=C(Cn1nc(C(F)F)c2c1C(F)(F)CCC2(F)F)N[C@@H](Cc1cc(F)cc(F)c1)c1ncncc1-c1ccc(Cl)cc1 [Example 524D, (S)—N-(1-(5-(4-chlorophenyl)pyrimidin-4-yl)-2-(3,5-difluorophenyl)ethyl)-2-(3-(difluoromethyl)-4,4,7,7-tetrafluoro-4,5,6,7-tetrahydro-1H-indazol-1-yl)acetamide]	78	8530	–	–
NC(=O)c1cc(-c2cccnc2[C@H](Cc2cc(F)cc(F)c2)NC(=O)Cn2nc(C(F)(F)F)c3c2CCC3O)ccc1F (stereo partly drawn) [Example 525, 5-(2-((1S)-2-(3,5-difluorophenyl)-1-(2-(4-hydroxy-3-(trifluoromethyl)-5,6-dihydrocyclopenta[c]pyrazol-1(4H)-yl)acetamido)ethyl)pyridin-3-yl)-2-fluorobenzamide]	83	> 53200	–	–
CC(C)(C)OC(=O)NCc1ccc2c(CC(=O)N[C@@H](Cc3cc(F)cc(F)c3)c3ncccc3-c3ccc(Cl)cc3)c[nH]c2c1 [Example 526, (S)-tert-butyl (3-(2-(1-(3-(4-chlorophenyl)pyridin-2-yl)-2-(3,5-difluorophenyl)ethylamino)-2-oxoethyl)-1H-indol-6-yl)methylcarbamate]	50	10000	–	–
NC(=O)c1cccc(-c2cccnc2[C@H](Cc2cc(F)cc(F)c2)NC(=O)Cc2c[nH]c3cc(C(F)(F)F)ccc23)c1 [Example 527E, (S)-3-(2-(2-(3,5-difluorophenyl)-1-(2-(6-(trifluoromethyl)-1H-indol-3-yl)acetamido)ethyl)pyridin-3-yl)benzamide]	66	10600	–	–
O=C(Cn1nc(C(F)F)cc1C(F)F)N[C@@H](Cc1cc(F)cc(F)c1)c1ccccn1 [Example 528, (S)-2-(3,5-bis(difluoromethyl)-1H-pyrazol-1-yl)-N-(2-(3,5-difluorophenyl)-1-(pyridin-2-yl)ethyl)acetamide]	0	> 53200	–	–
CC(C)(C)OC(=O)NCc1ccc2[nH]cc(CC(=O)N[C@@H](Cc3cc(F)cc(F)c3)c3ncccc3-c3cccc(C(N)=O)c3)c2c1 [Example 529, (S)-tert-butyl (3-(2-(1-(3-(3-carbamoylphenyl)pyridin-2-yl)-2-(3,5-difluorophenyl)ethylamino)-2-oxoethyl)-1H-indol-5-yl)methylcarbamate]	53	13000	–	–
NC(=O)c1cc(-c2cccnc2[C@H](Cc2cc(F)cc(F)c2)NC(=O)Cc2c[nH]c3c(F)cc(F)cc23)ccc1F [Example 530E, (S)-5-(2-(1-(2-(5,7-difluoro-1H-indol-3-yl)acetamido)-2-(3,5-difluorophenyl)ethyl)pyridin-3-yl)-2-fluorobenzamide]	55	15300	–	–
NC(=O)c1cc(-c2cccnc2[C@H](Cc2cc(F)cc(F)c2)NC(=O)Cc2c[nH]c3cc(F)c(F)cc23)ccc1F [Example 533E, (S)-5-(2-(1-(2-(5,6-difluoro-1H-indol-3-yl)acetamido)-2-(3,5-difluorophenyl)ethyl)pyridin-3-yl)-2-fluorobenzamide]	142	19300	–	–
Cc1cccc2[nH]cc(CC(=O)N[C@@H](Cc3cc(F)cc(F)c3)c3ncccc3-c3ccc(Cl)cc3)c12 [Example 534, (S)—N-(1-(3-(4-chlorophenyl)pyridin-2-yl)-2-(3,5-difluorophenyl)ethyl)-2-(4-methyl-1H-indol-3-yl)acetamide]	29	9820	–	–
NC(=O)c1cc(-c2cccnc2[C@H](Cc2cc(F)cc(F)c2)NC(=O)Cn2nc(C(F)(F)F)c3c2CCC3(F)F)ccc1F [Example 535G, (S)-5-(2-(1-(2-(4,4-difluoro-3-(trifluoromethyl)-5,6-dihydrocyclopenta[c]pyrazol-1(4H)-yl)acetamido)-2-(3,5-difluorophenyl)ethyl)pyridin-3-yl)-2-fluorobenzamide]	9	25300	–	–
Cc1cc2[nH]cc(CC(=O)N[C@@H](Cc3cc(F)cc(F)c3)c3ncccc3-c3cccc(C(N)=O)c3)c2cc1OCc1ccccc1 [Example 536I, (S)-3-(2-(1-(2-(5-(benzyloxy)-6-methyl-1H-indol-3-yl)acetamido)-2-(3,5-difluorophenyl)ethyl)pyridin-3-yl)benzamide]	12	8600	–	–
CC(C)c1nccn1CC(=O)N[C@@H](Cc1cc(F)cc(F)c1)c1ncccc1-c1ccc(F)c(C(N)=O)c1 [Example 537, (S)-5-(2-(2-(3,5-difluorophenyl)-1-(2-(2-isopropyl-1H-imidazol-1-yl)acetamido)ethyl)pyridin-3-yl)-2-fluorobenzamide]	2	> 53200	–	–
CC(C)c1cc(C(C)C)n(CC(=O)N[C@@H](Cc2cc(F)cc(F)c2)c2ncccc2-c2ccc(F)c(C(N)=O)c2)n1 [Example 538, (S)-5-(2-(2-(3,5-difluorophenyl)-1-(2-(3,5-diisopropyl-1H-pyrazol-1-yl)acetamido)ethyl)pyridin-3-yl)-2-fluorobenzamide]	14	23300	–	–
O=C(Cn1nc(C(F)F)cc1C(F)F)N[C@@H](Cc1cc(F)cc(F)c1)c1ncccc1-c1ccc(S(=O)(=O)N2CCOCC2)cc1 [Example 539, (S)-2-(3,5-bis(difluoromethyl)-1H-pyrazol-1-yl)-N-(2-(3,5-difluorophenyl)-1-(3-(4-(morpholinosulfonyl)phenyl)pyridin-2-yl)ethyl)acetamide]	10	20800	–	–
CC(=O)c1cn(CC(=O)N[C@@H](Cc2cc(F)cc(F)c2)c2ncccc2-c2ccc(Cl)cc2)c2ccccc12 [Example 541, (S)-2-(3-acetyl-1H-indol-1-yl)-N-(1-(3-(4-chlorophenyl)pyridin-2-yl)-2-(3,5-difluorophenyl)ethyl)acetamide]	37	–	8150	–
NC(=O)c1cc(-c2cccnc2[C@H](Cc2cc(F)cc(F)c2)NC(=O)Cn2nc(C(F)(F)F)cc2C(F)(F)F)ccc1F [Example 542, (S)-5-(2-(1-(2-(3,5-bis(trifluoromethyl)-1H-pyrazol-1-yl)acetamido)-2-(3,5-difluorophenyl)ethyl)pyridin-3-yl)-2-fluorobenzamide]	1	33600	–	–
CCC(C(=O)N[C@@H](Cc1cc(F)cc(F)c1)c1ncccc1-c1ccc(F)c(C(N)=O)c1)n1cc(C(C)=O)c2ccccc21 (stereo partly drawn) [Example 543, 5-(2-((1S)-1-(2-(3-acetyl-1H-indol-1-yl)butanamido)-2-(3,5-difluorophenyl)ethyl)pyridin-3-yl)-2-fluorobenzamide]	–	–	44000	4
Cc1ccc2ccn(CC(=O)N[C@@H](Cc3cc(F)cc(F)c3)c3ncccc3-c3ccc(F)c(C(N)=O)c3)c2c1 [Example 545, (S)-5-(2-(2-(3,5-difluorophenyl)-1-(2-(6-methyl-1H-indol-1-yl)acetamido)ethyl)pyridin-3-yl)-2-fluorobenzamide]	37	15900	–	–
NC(=O)c1cccc(-c2cccnc2[C@H](Cc2cc(F)cc(F)c2)NC(=O)Cn2ccc3c(F)cc(F)cc32)c1 [Example 546C, (S)-3-(2-(1-(2-(4,6-difluoro-1H-indol-1-yl)acetamido)-2-(3,5-difluorophenyl)ethyl)pyridin-3-yl)benzamide]	15	16800	–	–
